Non-standard residues stand in square brackets, D forms with d. Residues, ends and D or L forms follow the SMILES beside them. *: point of attachment. 5FAM = O=C1OC2(c3ccc(O)cc3Oc3cc(O)ccc32)c2ccc(C(=O)*)cc21; pY = N[C@@H](Cc1ccc(OP(=O)(O)O)cc1)C(=O)O
Legend:
SHP2 C‐SH2 domain = biological target: T1, SHP2 C‐SH2 domain (Homo sapiens, UniProt Q06124); experiment: Fluorescence polarization (FP) binding assay, SHP2 C-SH2 domain; conditions: 100 nM FAM-labelled peptide, increasing C-SH2 protein, 50 mM HEPES pH 7.5, 150 mM NaCl, 1 mM EDTA, 0.05% Tween 20, FP at 10 min, three independent experiments in technical triplicates, read-out: K D ± SEM, C‐SH2 (FP)
T1 construct: SHP2 N-SH2 domain (1–105), C-SH2 domain (106–220), PTP domain (224–541) and; His6 (pETM22 vector) (N, cleaved yes); made in house; host or cells: E. coli BL21(DE3)
T1 sequence (Q06124 106-220): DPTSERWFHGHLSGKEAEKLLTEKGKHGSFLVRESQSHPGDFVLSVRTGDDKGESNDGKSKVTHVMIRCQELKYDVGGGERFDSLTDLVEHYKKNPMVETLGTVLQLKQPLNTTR
Description: (§1) buffer and stored in 5 mL binding buffer at 4°C. His-tagged 3C protease (0.5 mg; EMBL) was added to the pooled eluted fractions and dialysed using Spectra Por Dialysis Tubing (MWCO 6-8 kDa, 23 mm; Spectrum Labs) in 1 L of binding buffer at 4°C for 3 hours, then overnight in fresh buffer. A new column was prepared by loading 2 mL Ni-NTA Agarose (Invitrogen) as a 50% slurry in EtOH. The column was washed with 10 mL H2O to remove the EtOH and equilibrated with 10 mL binding buffer. The protein/3C protease mixture was loaded onto the column and incubated for 1 hour at 4°C on a rocker. The flow through containing the protein was collected, the column was washed with 100 mL binding buffer and the 3C protease was eluted with 5 mL elution buffer. Protein purification was monitored by SDS-PAGE using NuPAGE 4-12% Bis-Tris Protein Gels (Invitrogen) run in MOPS buffer (50 mM MOPS, 50 mM Tris-HCl pH 7.7, 1 mM EDTA, 0.1% SDS) followed by Coomassie staining using Coomassie Brilliant Blue (Roth). The purified protein was dialysed into the final storage buffer (50 mM HEPES pH 7.5, 150 mM NaCl, 2 mM DTT, 20% glycerol). Aliquots were prepared and stored at -80°C until required. […]
(§2) 4. Fluorescence polarization
(§3) Fluorescence polarization (FP) was used to measure the binding of FAM-labelled peptides to the SHP2 C-SH2, SHP2 N-SH2, SHP2 PTP, CSK SH2 or Src SH2 domains. Each peptide was added to increasing concentrations of SHP2 C-SH2, SHP2 N-SH2, SHP2 PTP, CSK SH2 or Src SH2 protein in FP buffer (50 mM HEPES pH 7.5, 150 mM NaCl, 1 mM EDTA, 0.05% Tween 20) to give a final peptide […]
(§4) concentration of 100 nM in a final volume of 200 µL. For baseline subtraction, each peptide was added to FP buffer, instead of protein, with a final peptide concentration of 100 nM in a final volume of 200 µL. Samples were mixed gently then 3 x 60 µL of each sample was transferred into triplicate wells in a 96-well plate (OptiPlate-96 F Black; PerkinElmer). The FP was immediately measured on a Synergy H1 Microplate Reader (BioTek) with the excitation and emission monitored at 485 nm and 528 nm, respectively, over 30 minutes. FP values were automatically calculated by the Gen5 3.03 (BioTek) software associated with the microplate reader. Data were analysed in Excel 2016 by subtracting baseline values from FP values at 10 minutes. Data were then further analysed in GraphPad Prism 6 by plotting the baseline subtracted FP values against the protein concentration and fitting the data to a variable slope model of non-linear regression to obtain the KD values. Data are from three independent experiments, each performed in technical triplicates.
(§5) 5. Isothermal titration calorimetry […]
(§6) Analysis Software (Malvern Panalytical). For the data analysis, a 1:1 binding stoichiometry between the Ac-ITSM(pTyr) and SH2 domain was assumed. ITC measurements were performed once.

SHP2 N‐SH2 domain = biological target: T2, SHP2 N‐SH2 domain (Homo sapiens, UniProt Q06124); experiment: Fluorescence polarization (FP) binding assay, SHP2 N-SH2 domain; conditions: 100 nM FAM-labelled peptide, increasing N-SH2 protein, 50 mM HEPES pH 7.5, 150 mM NaCl, 1 mM EDTA, 0.05% Tween 20, FP at 10 min, three independent experiments in technical triplicates, read-out: K D ± SEM, N‐SH2 (FP)
T2 construct: SHP2 N-SH2 domain (1–105), C-SH2 domain (106–220), PTP domain (224–541) and; His6 (pETM22 vector) (N, cleaved yes); made in house; host or cells: E. coli BL21(DE3)
T2 sequence (Q06124 1-105): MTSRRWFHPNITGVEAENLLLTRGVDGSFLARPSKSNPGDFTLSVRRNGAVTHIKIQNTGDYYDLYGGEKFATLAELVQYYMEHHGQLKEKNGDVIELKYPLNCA
Description: as §1, §2, §3, §4, §5, §6

CC[C@H](C)[C@H](NC(=O)[C@@H](NC(=O)[C@H](C)NC(=O)[C@H](Cc1ccc(OP(=O)(O)O)cc1)NC(=O)[C@H](CCC(=O)O)NC(=O)[C@@H](NC(=O)[C@H](CCC(N)=O)NC(=O)[C@H](CCC(=O)O)NC(=O)c1ccc2c(c1)C(=O)OC21c2ccc(O)cc2Oc2cc(O)ccc21)[C@@H](C)O)[C@@H](C)O)C(=O)N[C@@H](CCCCN)C(=O)N[C@@H](Cc1ccccc1)C(=O)N1CCC[C@H]1C(N)=O [compound 9] (5FAM-EQTE[pY]ATIKFP-NH2) showed a Kd (SHP2 C‐SH2 domain) of 72 ± 2.61 nM and a Kd (SHP2 N‐SH2 domain) greater than 2000 nM.

With CC(C)[C@H](NC(=O)[C@@H](NC(=O)[C@H](C)NC(=O)[C@H](Cc1ccc(OP(=O)(O)O)cc1)NC(=O)[C@H](CCC(=O)O)NC(=O)[C@@H](NC(=O)[C@H](CCC(N)=O)NC(=O)[C@H](CCC(=O)O)NC(=O)c1ccc2c(c1)C(=O)OC21c2ccc(O)cc2Oc2cc(O)ccc21)[C@@H](C)O)[C@@H](C)O)C(=O)N[C@@H](CCCCN)C(=O)N[C@@H](Cc1ccccc1)C(=O)N1CCC[C@H]1C(N)=O [compound 10] (5FAM-EQTE[pY]ATVKFP-NH2) the Kd (SHP2 C‐SH2 domain) was 209 ± 14.4 nM and the Kd (SHP2 N‐SH2 domain) was greater than 3000 nM.

For CC[C@H](C)[C@H](NC(=O)[C@@H](NC(=O)[C@H](C)NC(=O)[C@H](Cc1ccc(OP(=O)(O)O)cc1)NC(=O)[C@H](CCC(=O)O)NC(=O)[C@@H](NC(=O)[C@H](CCC(N)=O)NC(=O)c1ccc2c(c1)C(=O)OC21c2ccc(O)cc2Oc2cc(O)ccc21)[C@@H](C)O)[C@@H](C)O)C(=O)N[C@H](C(=O)N[C@@H](Cc1ccccc1)C(=O)N1CCC[C@H]1C(N)=O)C(C)C [compound 11] (5FAM-QTE[pY]ATIVFP-NH2), the Kd (SHP2 C‐SH2 domain) was 40.8 ± 0.96 nM and the Kd (SHP2 N‐SH2 domain) was 204 ± 10.4 nM.

Work on CC[C@H](C)[C@H](NC(=O)[C@@H](NC(=O)[C@H](C)NC(=O)[C@H](Cc1ccc(OP(=O)(O)O)cc1)NC(=O)[C@H](CCC(=O)O)NC(=O)[C@@H](NC(=O)[C@H](CCC(N)=O)NC(=O)c1ccc2c(c1)C(=O)OC21c2ccc(O)cc2Oc2cc(O)ccc21)[C@@H](C)O)[C@@H](C)O)C(=O)N[C@@H](CCCCN)C(=O)N[C@@H](Cc1c[nH]c2ccccc12)C(=O)N1CCC[C@H]1C(N)=O [compound 13] (5FAM-QTE[pY]ATIKWP-NH2) yielded a Kd (SHP2 C‐SH2 domain) of 46.8 ± 1.29 nM and a Kd (SHP2 N‐SH2 domain) of 368 ± 40 nM.

In the case of CC[C@H](C)[C@H](NC(=O)[C@@H](NC(=O)[C@H](C)NC(=O)[C@H](Cc1ccc(OP(=O)(O)O)cc1)NC(=O)[C@H](CCC(=O)O)NC(=O)[C@@H](NC(=O)[C@H](CCC(N)=O)NC(=O)c1ccc2c(c1)C(=O)OC21c2ccc(O)cc2Oc2cc(O)ccc21)[C@@H](C)O)C(C)C)C(=O)N[C@@H](CCCCN)C(=O)N[C@@H](Cc1ccccc1)C(=O)N1CCC[C@H]1C(N)=O [compound 14] (5FAM-QTE[pY]AVIKFP-NH2), the Kd (SHP2 C‐SH2 domain) is reported as 80.2 ± 4.32 nM and the Kd (SHP2 N‐SH2 domain) is reported as 840 ± 228 nM.

For CC[C@H](C)[C@H](NC(=O)[C@@H](NC(=O)[C@H](C)NC(=O)[C@H](Cc1ccc(OP(=O)(O)O)cc1)NC(=O)[C@H](CCC(=O)O)NC(=O)[C@@H](NC(=O)[C@H](CCCCN)NC(=O)c1ccc2c(c1)C(=O)OC21c2ccc(O)cc2Oc2cc(O)ccc21)[C@@H](C)O)[C@@H](C)O)C(=O)N[C@@H](CCCCN)C(=O)N[C@@H](Cc1ccccc1)C(=O)N1CCC[C@H]1C(N)=O [compound 15] (5FAM-KTE[pY]ATIKFP-NH2), the Kd (SHP2 C‐SH2 domain) was 61.5 ± 1.83 nM and the Kd (SHP2 N‐SH2 domain) was 1550 ± 528 nM.

CC[C@H](C)[C@H](NC(=O)[C@@H](NC(=O)[C@H](C)NC(=O)[C@H](Cc1ccc(OP(=O)(O)O)cc1)NC(=O)[C@H](CCC(=O)O)NC(=O)[C@@H](NC(=O)[C@H](CCC(N)=O)NC(=O)c1ccc2c(c1)C(=O)OC21c2ccc(O)cc2Oc2cc(O)ccc21)[C@@H](C)O)[C@@H](C)O)C(=O)N[C@@H](CCCCN)C(=O)N[C@@H](Cc1ccccc1)C(=O)N1CCC[C@H]1C(N)=O [compound 16] (5FAM-QTE[pY]ATIKFP-NH2) showed a Kd (SHP2 C‐SH2 domain) of 86 ± 2.43 nM and a Kd (SHP2 N‐SH2 domain) of 1090 ± 199 nM.

In the case of CC[C@H](C)[C@H](NC(=O)[C@@H](NC(=O)[C@H](C)NC(=O)[C@H](Cc1ccc(OP(=O)(O)O)cc1)NC(=O)[C@H](CCC(=O)O)NC(=O)[C@@H](NC(=O)[C@H](CCC(N)=O)NC(=O)c1ccc2c(c1)C(=O)OC21c2ccc(O)cc2Oc2cc(O)ccc21)[C@@H](C)O)[C@@H](C)O)C(=O)N[C@@H](CCCCN)C(=O)N[C@@H](Cc1ccc(O)cc1)C(=O)N1CCC[C@H]1C(N)=O [compound 17] (5FAM-QTE[pY]ATIKYP-NH2), the Kd (SHP2 C‐SH2 domain) is reported as 116 ± 7.7 nM and the Kd (SHP2 N‐SH2 domain) is reported as greater than 3000 nM.

CC[C@H](C)[C@H](NC(=O)[C@@H](NC(=O)[C@H](C)NC(=O)[C@H](Cc1ccc(OP(=O)(O)O)cc1)NC(=O)[C@H](CCC(=O)O)NC(=O)[C@@H](NC(=O)[C@H](CCC(N)=O)NC(=O)[C@H](C)NC(=O)c1ccc2c(c1)C(=O)OC21c2ccc(O)cc2Oc2cc(O)ccc21)[C@@H](C)O)[C@@H](C)O)C(=O)N[C@H](C(=O)N[C@@H](Cc1ccccc1)C(=O)N1CCC[C@H]1C(N)=O)C(C)C [peptide 1] (5FAM-AQTE[pY]ATIVFP-NH2) gave a Kd (SHP2 C‐SH2 domain) of 62 ± 1.98 nM and a Kd (SHP2 N‐SH2 domain) of 295 ± 37.2 nM.

CC[C@H](C)[C@H](NC(=O)[C@@H](NC(=O)[C@H](C)NC(=O)[C@H](Cc1ccc(OP(=O)(O)O)cc1)NC(=O)[C@H](CCC(=O)O)NC(=O)[C@@H](NC(=O)[C@H](C)NC(=O)[C@H](CCC(=O)O)NC(=O)c1ccc2c(c1)C(=O)OC21c2ccc(O)cc2Oc2cc(O)ccc21)[C@@H](C)O)[C@@H](C)O)C(=O)N[C@H](C(=O)N[C@@H](Cc1ccccc1)C(=O)N1CCC[C@H]1C(N)=O)C(C)C [peptide 2] (5FAM-EATE[pY]ATIVFP-NH2) gave a Kd (SHP2 C‐SH2 domain) of 51.3 ± 1.08 nM and a Kd (SHP2 N‐SH2 domain) of 58 ± 4.6 nM.

CC[C@H](C)[C@H](NC(=O)[C@@H](NC(=O)[C@H](C)NC(=O)[C@H](Cc1ccc(OP(=O)(O)O)cc1)NC(=O)[C@H](CCC(=O)O)NC(=O)[C@H](C)NC(=O)[C@H](CCC(N)=O)NC(=O)[C@H](CCC(=O)O)NC(=O)c1ccc2c(c1)C(=O)OC21c2ccc(O)cc2Oc2cc(O)ccc21)[C@@H](C)O)C(=O)N[C@H](C(=O)N[C@@H](Cc1ccccc1)C(=O)N1CCC[C@H]1C(N)=O)C(C)C [peptide 3] (5FAM-EQAE[pY]ATIVFP-NH2) was tested, and the Kd (SHP2 C‐SH2 domain) was 135 ± 4.6 nM and the Kd (SHP2 N‐SH2 domain) was 428 ± 25.1 nM.

Work on CC[C@H](C)[C@H](NC(=O)[C@@H](NC(=O)[C@H](C)NC(=O)[C@H](Cc1ccc(OP(=O)(O)O)cc1)NC(=O)[C@H](CCC(=O)O)NC(=O)[C@@H](NC(=O)[C@H](CCC(N)=O)NC(=O)c1ccc2c(c1)C(=O)OC21c2ccc(O)cc2Oc2cc(O)ccc21)[C@@H](C)O)[C@@H](C)O)C(=O)N[C@@H](CCCCN)C(=O)N[C@@H](Cc1c[nH]cn1)C(=O)N1CCC[C@H]1C(N)=O [peptide 18] (5FAM-QTE[pY]ATIKHP-NH2) yielded a Kd (SHP2 C‐SH2 domain) of 88.2 ± 4.29 nM and a Kd (SHP2 N‐SH2 domain) greater than 3000 nM.

From paper PMC12118337, “Development of a Peptide Inhibitor Targeting the C‐SH2 Domain of the SHP2 Phosphatase” (Chembiochem, 2025)
